{
  "source": "patent US20140212465A1",
  "about": "“TREATMENT AND PREVENTION OF DENTAL PATHOLOGY IN HUMANS AND NON-HUMAN ANIMALS” (priority 2011, published 2014)",
  "origin": "cited, not measured here",
  "conditions": "aqueous environment",
  "data": [
    {"compound": "[Ca+2].[OH-].[OH-]", "note": "[calcium hydroxide]", "values": [
      {"measurement": "pH", "result": 12.5}
    ]}
  ]
}
